Experiments:
α3β4α5 nAChR [1] = target: T1, α3β4α5 nAChR (Homo sapiens, UniProt P30532+P30926+P32297); assay: biochemical
α3β4 nAChR = α3β4 nAChR (Homo sapiens, UniProt P30926+P32297); assay: biochemical
α3β4α5 nAChR [2] = target: T1, α3β4α5 nAChR; settings: agonist binding site

Chain of α3β4 nAChR (P32297 32-505): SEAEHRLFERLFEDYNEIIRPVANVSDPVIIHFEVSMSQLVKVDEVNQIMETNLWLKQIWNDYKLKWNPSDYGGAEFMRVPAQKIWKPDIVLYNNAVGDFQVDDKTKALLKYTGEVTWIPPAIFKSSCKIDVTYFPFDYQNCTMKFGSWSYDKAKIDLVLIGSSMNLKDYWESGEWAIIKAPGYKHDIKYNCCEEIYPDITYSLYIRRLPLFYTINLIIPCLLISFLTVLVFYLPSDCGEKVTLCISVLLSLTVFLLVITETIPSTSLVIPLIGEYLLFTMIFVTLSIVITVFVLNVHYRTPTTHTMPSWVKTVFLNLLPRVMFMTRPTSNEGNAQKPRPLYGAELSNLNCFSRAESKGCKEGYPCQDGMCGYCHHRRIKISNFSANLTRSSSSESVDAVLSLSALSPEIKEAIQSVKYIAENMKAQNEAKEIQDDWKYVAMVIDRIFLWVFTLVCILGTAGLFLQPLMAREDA
Chain of α3β4 nAChR (P30926 22-498): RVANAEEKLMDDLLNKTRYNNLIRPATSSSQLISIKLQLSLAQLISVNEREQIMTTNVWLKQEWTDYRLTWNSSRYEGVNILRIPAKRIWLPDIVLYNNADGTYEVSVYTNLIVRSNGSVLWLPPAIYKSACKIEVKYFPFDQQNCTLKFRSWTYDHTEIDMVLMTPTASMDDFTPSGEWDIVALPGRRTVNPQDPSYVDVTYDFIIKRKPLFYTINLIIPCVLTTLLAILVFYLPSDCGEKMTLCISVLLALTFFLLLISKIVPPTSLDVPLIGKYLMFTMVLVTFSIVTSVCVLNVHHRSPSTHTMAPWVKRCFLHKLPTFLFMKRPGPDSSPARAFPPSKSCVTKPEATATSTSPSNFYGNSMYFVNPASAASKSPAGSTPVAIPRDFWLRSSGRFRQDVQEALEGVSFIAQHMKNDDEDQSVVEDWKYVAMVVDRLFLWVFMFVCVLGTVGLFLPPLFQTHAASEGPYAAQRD
T1 sequence (P32297 32-505): as the sequence (P32297 32-505) above
T1 sequence (P30926 22-498): as the sequence (P30926 22-498) above
T1 sequence (P30532 23-468): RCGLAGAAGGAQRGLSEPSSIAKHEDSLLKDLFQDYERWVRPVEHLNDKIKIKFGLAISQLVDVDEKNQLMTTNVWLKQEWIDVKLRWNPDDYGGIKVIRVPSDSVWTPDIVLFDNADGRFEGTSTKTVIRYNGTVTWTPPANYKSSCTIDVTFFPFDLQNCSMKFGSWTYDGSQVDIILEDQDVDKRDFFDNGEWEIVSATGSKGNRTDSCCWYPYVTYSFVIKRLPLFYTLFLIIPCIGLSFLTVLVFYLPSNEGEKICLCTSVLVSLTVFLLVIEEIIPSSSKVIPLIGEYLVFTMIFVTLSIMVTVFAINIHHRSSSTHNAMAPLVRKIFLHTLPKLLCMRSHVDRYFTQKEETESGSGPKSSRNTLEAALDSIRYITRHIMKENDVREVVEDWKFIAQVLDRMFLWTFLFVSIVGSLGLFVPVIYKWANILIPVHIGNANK

**Q.** How did the Kd (α3β4α5 nAChR [1]) turn out when O=c1cccc2n1C[C@@H]1CNC[C@H]2C1 [Cytisine] was run?
**A.** 5.4 nM

**Q.** What about the Ki (α3β4α5 nAChR [1]) of the same compound?
**A.** 5.4 ± 3.5 nM

**Q.** And the Kd (α3β4 nAChR)?
**A.** 8.5 nM

**Q.** What about the Ki (α3β4 nAChR) of the same compound?
**A.** 8.52 ± 5.7 nM

**Q.** What does the source list for c1cncc([C@@H]2CCCN2)c1 [Nornicotine]?
**A.** Kd (α3β4α5 nAChR [1]): 21 nM; Ki (α3β4α5 nAChR [1]): 20.8 ± 11.7 nM; Kd (α3β4 nAChR): 36 nM; Ki (α3β4 nAChR): 35.6 ± 18.9 nM; subtype selectivity between α3β4 and α3β4α5 nicotinic receptors (α3β4α5 nAChR [2]): no subtype selectivity

**Q.** Which results are given for c1cncc([C@@H]2CCCCN2)c1 [Anabasine]?
**A.** Ki (α3β4α5 nAChR [1]): 67.5 ± 25.8 nM; Ki (α3β4 nAChR): 528 ± 136 nM; higher affinity for the α3β4α5 nAChR vs the α3β4 nAChR (α3β4α5 nAChR [2]): 10 fold; subtype selectivity between α3β4 and α3β4α5 nicotinic receptors (α3β4α5 nAChR [2]): selective for the α3β4α5 nicotinic receptor

— publication PMC4748418 (Journal of chromatography. A, 2015)
